Data published in patent US20090104119A1, “Dendrimer Based Compositions And Methods Of Using The Same” (priority 2004, published 2009).

Experiments:
[1] = test system: KB cells which express a high cell surface FA receptor (FAR); assay: Cellular uptake/binding of dendrimers in high-FAR KB cells, flow cytometry; format: cell-based, human
Description: (§1) Cell culture and treatment.
(§2) Flow Cytometry and Confocal Microscopy. The standard fluorescence of the dendrimer solutions was quantified using a Beckman spectrofluorimeter. For flow cytometric analysis of the uptake of the targeted polymer, cells were trypsinized and suspended in PBS containing 0.1% bovine serum albumin (PBSB) and analyzed using a Becton Dickinson FACScan analyzer. The FL1-fluorescence of 10,000 cells was measured and the mean fluorescence of gated viable cells was quantified. Confocal microscopic analysis was performed in cells plated on a glass cover-slip, using a Carl Ziess confocal microscope. Fluorescence and differential interference contrast (DIC) images were collected simultaneously using an argon laser, using the appropriate filters for FITC.
The cellular uptake of the dendrimers was measured in KB cells which express a high cell surface FA receptor (FAR). The FA-conjugated dendrimers bound to the cells in a dose-dependent fashion, with 50% binding at 10-15 nM for both the G5-FITC-FA and G5-FITC-FA-MTX, while the control dendrimer G5-FITC was not detected in the KB cells (See, e.g., FIG. 18A). Identical binding curves were obtained for the G5-FITC-FA and G5-FITC-FA-MTX when the fluorescence obtained was normalized for the quenching observed in the standard solutions of the dendrimers (See e.g., FIG. 18B).
(§3) The effect of free FA on the uptake of the dendrimers was tested in KB cells that express both high and low FAR. The binding of the conjugates to the low FAR-expressing KB cells was 30% of that of the high FAR-expressing cells for both the G5-FITC-FA and G5-FITC-FA-MTX (See, for e.g., FIG. 19, left panel). […] The binding and internalization of the dendrimers to KB cells was assessed by confocal microscopy. KB cells were incubated with 250 nM of the indicated dendrimers for 24 hours and confocal images were taken. Conjugates containing the targeting molecule FA internalized into KB cells within 24 h (See, e.g., FIG. 20).

[2] = test system: low FAR-expressing KB cells; assay: Cellular uptake/binding of dendrimers in low-FAR KB cells, flow cytometry; format: cell-based, human
Description: as §1, §2, §3
Time course and dose dependent inhibition of cell growth.

[3] = test system: KB cells; assay: Inhibition of cell growth by XTT assay; format: cell-based, human
Description: as §1
Evaluation of dendrimer cytotoxicity.
Because the binding of the conjugate to KB cells reaches maximal uptake within 1 h (Quintana et al, 2002. Pharmaceutical Research 19: 1310-1316.), the effect of the G5-FI-FA-MTX on cell growth was initially tested by pre-incubation of cells with the conjugate for 1 h, followed by incubation in a drug-free medium for 5 d. […] When the cells were pre-incubated with dendrimers for 4 h, there was a modest decrease of about 10% in cell growth as determined by XTT assay. The cytotoxicity measurements were therefore done by incubation with the dendrimer for a minimum of 24 h, a pre-incubation time period shown to induce significant cytotoxicity.
The inhibition of cell growth induced by the conjugates was also tested by XTT assay which is based on the conversion of XTT to formazan by the active mitochondria of live cells (See, e.g., Roehm et al, J Immunol Methods 142, 257 (1991)).
As free FA blocks the uptake of the dendrimers as well as rescues cells from MTX-induced cytotoxicity, the effect of pre-incubation of cells with excess FA on the anti-proliferative effect of G5-FITC-FA-MTX was tested. KB cells were exposed to different concentrations of the conjugate or free MTX for 24 h in the absence or presence of 50 μM FA. The incubation medium was removed, the cells were rinsed and incubated with fresh medium for 5 additional days in the absence of the drugs, and the XTT assay was performed (See, e.g., FIG. 24, □, ▪, represents cells treated with MTX; Δ, ▴, represents cells treated with G5-FITC-FA-MTX).
The anti-proliferative effect of the MTX-conjugates was compared to conjugates that lacked either the FA or the FITC molecule. KB cells were incubated with 30 nM of the conjugates (=150 nM effective MTX concentration) for 24 h and the incubation medium was removed. The cells were rinsed and incubated for an additional 5 d in fresh medium in the absence of the drugs, and the XTT assay was performed.

[4] = Stability of dendrimer in cell culture medium (MTX release; ultrafiltration, XTT readout); format: physicochemical
Description: The stability of the dendrimer was tested in cell culture medium to check if MTX was released from the dendrimer prior to its entry into the cells. The G5-FITC-FA-MTX was incubated with cell culture medium for 1, 2, 4 and 24 h, and the incubation medium was filtered using a 10,000-MW cutoff ultrafiltration device. The effect of the retentate and the filtrate on the growth of the KB cells was tested. G5-FITC-FA-MTX was incubated with medium at 2 μM concentration for 24 h. The incubation medium was filtered through a Centricon 10K-MW cutoff filter. The retentate (adjusted to pre-filtration volume) and the filtrate were incubated with KB cells (at 200 nM conjugate, as determined from the concentration of the pre-filtration sample) for 2 days and the XTT assay was performed. Similar results were obtained for the retentate and filtrate obtained from the medium that had been pre-incubated with the dendrimers for 1, 2, and 4 hours. […] There was a slow release of the MTX after 24 h, reaching a maximum of 40-50% release in 1 week.

[5] = 2 μM, up to 24 h in medium, 10K-MW cutoff filter, KB cells 2 days, XTT

Substance: G5-(Ac)82-(FITC)5-(FA)5-MTX5 [G5-FITC-FA-MTX]
- time to maximal binding ([1]; 100 nM): ≤ 30 min
- effect of free FA on uptake, high-FAR expressing cells ([1]; 50 μM FA, dendrimer 30 nM): completely blocked
- binding to low FAR-expressing KB cells relative to high FAR-expressing cells [2]: 30%
- effect of free FA on uptake, low-FAR expressing cells ([2]; 50 μM FA, dendrimer 30 nM): completely blocked
- inhibition of cell growth, XTT ([3]; 1, 2 or 3 days): time-dependent cytotoxicity
- decrease in cell growth ([3]; pre-incubated 4 h, XTT assay): about 10%
- growth-inhibitory effect ([3]; pre-incubation 1 h, then drug-free medium 5 d): failed to show any growth-inhibitory effect
- cytotoxicity of filtrate after incubation in medium [4, 5]: failed to show any cytotoxicity
- cytotoxicity of retentate after incubation in medium [4, 5]: cytotoxic
- release of MTX, maximum ([4]; slow release after 24 h, in 1 week): 40-50%
